Experimental data taken from patent US10653674B2, “Multisubstituted aromatic compounds as inhibitors of thrombin” (VERSEON CORPORATION, priority 2010, dated 2020).
One block for each molecule: values may come before it.

Tests used:
Human thrombin = biological target: T1, Human thrombin (Homo sapiens, UniProt P00734); experiment: Thrombin protease inhibition assay, chromogenic substrate S-2238; assay type: biochemical; conditions: inhibition of the protease activity of thrombin, Table A
T1 construct: purchased Haematologic Technologies Inc
Procedure: Compounds described herein can be assayed, by a variety of methods known in the art and described herein, for inhibition of biological activity, e.g., protease activity, of a variety of proteins, e.g., thrombin.
The thrombin activity reported herein (e.g., Table A) was obtained as follows. […] Thrombin was assayed in buffer containing 0.05 M Tris (pH 7.4), 0.015 M NaCl and 0.01% PEG-8000. The final concentration of enzyme used was 3 nM thrombin. […] All assays were performed in 96-well microtiter plates at room temperature (RT). […] Inhibitor IC50 values were determined by adding test compound as ten point, three-fold serial dilutions in buffer solution, as known in the art. The plate was read at 10 minutes after substrate addition. The IC50 was calculated by plotting the percent (%) inhibition against compound concentration and fitting the data to a constrained four parameter sigmoidal curve, as known in the art.

malignant breast tumors = conditions: cited from earlier work

- melting point: 185 to 186 °C
SMILES: Fc1ccc(CNc2nc(-c3cccnc3)n[nH]2)cc1 [Cmpd 4]

SMILES: CN(C)C(=O)c1n[nH]c(C(=O)Nc2ccccc2Cl)n1 [Cmpd 186, 5-C-(2-chlorobenzene)-3-N,3-N-dimethyl-1H-1,2,4-triazole-3,5-dicarboxamide]
- IC50 (Human thrombin): > 1000 nM

SMILES: CNC(=O)c1n[nH]c(C(=O)Nc2ccccc2Cl)n1 [Cmpd 187, 5-C-(2-chlorobenzene)-3-N-methyl-1H-1,2,4-triazole-3,5-dicarboxamide]
- IC50 (Human thrombin): > 1000 nM

SMILES: CCCCCCOC(=O)NC(=N)c1ccc(NCc2nc3cc(C(=O)N(CCC(=O)OCC)c4ccccn4)ccc3n2C)cc1 [dabigatran etexilate]
- reduction in tumor volume (malignant breast tumors; at 4 weeks, treated mice): 50%
- weight loss in treated mice (malignant breast tumors; at 4 weeks): no weight loss
- reduction of tumor cells in the blood and liver micrometastases (malignant breast tumors; mouse, in vivo): 50-60%
